Laboratory results reported in patent US20040023951A1, “Combination therapy for treatment of psychoses” (priority 2002, published 2004).
Where “and” joins values, the source holds several entries; their conditions need not be identical. Equal entries are not always repeated.

Test system: Rats
Assay: Conditioned avoidance behavior in rats
Format: in vivo, rat
From the text: Conditioned Avoidance Behavior in Rats:
In a conditioned avoidance test, animals learn to respond during a conditioned stimulus in order to avoid mild shock presentation. A response during the conditioned stimulus is termed an avoidance response, a response during shock is termed an escape response; a response failure is when the animal fails to respond during either the conditioned stimulus or the shock presentation and is indicative of motor impairment. […] Antipsychotic drugs decrease the percentage of avoidance responses without interfering with the ability of the animal to respond since the animals do emit escape responses. The percentage of response failures is considered a measure of motor impairment.
Rats were required to press a response lever in an experimental chamber in order to avoid or escape foot-shock. Each experimental session consisted of 50 trials. During each trial, the chamber was illuminated and a tone presented for a maximum of 10 sec. A response during the tone immediately terminated the tone and the houselight, ending the trial. In the absence of a response during the tone alone, tone+foot-shock (2.0 mA) was presented for a maximum of 10 sec. A response during shock presentation immediately terminated the shock, the tone and the houselights ending the trial.
If the effects are simply additive the results will be additive. If the effects of are synergistic, then the dose of second component required to produce full efficacy will be decreased.

[1] = first component dose 0.001 in combination with Xanomeline dose 10
[2] = first component dose 0.003 in combination with Xanomeline dose 10
[3] = first component dose 0.01 in combination with Xanomeline dose 10
[4] = first component dose 0.03 in combination with Xanomeline dose 10
[5] = given alone, dose 0.03 (dose unit not given)
[6] = first component dose 0.16 in combination with Xanomeline dose 10
[7] = first component dose 0.32 in combination with Xanomeline dose 10
[8] = first component dose 0.625 in combination with Xanomeline dose 10
[9] = first component dose 1.25 in combination with Xanomeline dose 10
[10] = first component dose 2.5 in combination with Xanomeline dose 10
[11] = Xanomeline dose 10 with first component dose 0 (combination series)
[12] = first component dose 0.1 in combination with Xanomeline dose 10
[13] = first component dose 0.3 in combination with Xanomeline dose 10

| SMILES | % Response Failures ± SEM [3] | % Response Failures ± SEM [4] | % Response Failures ± SEM (given alone, dose 0.1) | % Response Failures ± SEM (given alone, dose 0.3) | % Response Failures ± SEM (given alone, dose 10) | % Response Failures ± SEM (given alone, dose 1) | % Avoidance Responses ± SEM [1] | % Avoidance Responses ± SEM [2] | % Avoidance Responses ± SEM [3] | % Avoidance Responses ± SEM [4] | % Avoidance Responses ± SEM [5] | % Avoidance Responses ± SEM (given alone, dose 0.1) | % Avoidance Responses ± SEM (given alone, dose 0.3) | % Avoidance Responses ± SEM (given alone, dose 10) | % Avoidance Responses ± SEM (given alone, dose 1) | % Avoidance Responses ± SEM (given alone, dose 3) | % Avoidance Responses ± SEM [12] | % Avoidance Responses ± SEM [13] | other results |
| --- | --- | --- | --- | --- | --- | --- | --- | --- | --- | --- | --- | --- | --- | --- | --- | --- | --- | --- | --- |
| CN(C)CCCN1c2ccccc2Sc2ccc(Cl)cc21 [Chlorpromazine] |  |  |  |  | 16 ± 8% |  |  |  |  |  |  |  |  | 10 ± 4% |  |  |  |  | % Avoidance Responses ± SEM [6]: 56 ± 11%; % Response Failures ± SEM [6]: 1 ± 1%; % Avoidance Responses ± SEM [7]: 46 ± 22%; % Response Failures ± SEM [7]: 19 ± 19%; % Avoidance Responses ± SEM [8]: 30 ± 17%; % Response Failures ± SEM [8]: 0 ± 0%; % Avoidance Responses ± SEM [9]: 20 ± 10%; % Response Failures ± SEM [9]: 8 ± 7%; % Avoidance Responses ± SEM [10]: 22 ± 7%; % Response Failures ± SEM [10]: 1 ± 0%; % Avoidance Responses ± SEM (given alone, dose 1.25): 99 ± 1%; % Response Failures ± SEM (given alone, dose 1.25): 0 ± 0%; % Avoidance Responses ± SEM (given alone, dose 2.5): 96 ± 4%; % Response Failures ± SEM (given alone, dose 2.5): 0 ± 0%; % Avoidance Responses ± SEM (given alone, dose 5): 27 ± 12%; % Response Failures ± SEM (given alone, dose 5): 7 ± 5% |
| CCCCCCOc1nsnc1C1=CCCN(C)C1 [Xanomeline, 3-(4-hexyloxy-1,2,5-thiadiazol-3-yl)-1,2,5,6-tetrahydro-1-methylpyridine] |  |  |  |  | 2 ± 1% and 1 ± 0% | 0 ± 0% |  |  |  |  |  |  |  | 44 ± 18% and 78 ± 12% and 63 ± 18% | 98 ± 2% and 99 ± 0% | 93 ± 3% and 99 ± 1% |  |  | % Avoidance Responses ± SEM [11]: 87 ± 9% and 56 ± 13% and 72 ± 13%; % Response Failures ± SEM [11]: 0 ± 0%; % Response Failures ± SEM (given alone, dose 3): 0 ± 0%; % Avoidance Responses ± SEM (given alone, dose 17.5): 11 ± 4%; % Response Failures ± SEM (given alone, dose 17.5): 2 ± 1% |
| Cc1nc2n(c(=O)c1CCN1CCC(c3noc4cc(F)ccc34)CC1)CCCC2 [Risperidone, 3-[2-[4-(6-fluoro-1,2-benzisoxazol-3-yl)piperidino]ethyl]-2-methyl-6,7,8,9-tetrahydro-4H-pyrido[1,2-a]pyrimidin-4-one] |  |  |  |  |  |  | 48 ± 8% | 48 ± 16% | 23 ± 14% | 8 ± 2% | 100 ± 0% | 91 ± 5% | 37 ± 11% |  | 2 ± 1% |  |  |  |  |
| Cc1cc2c(s1)Nc1ccccc1N=C2N1CCN(C)CC1 [Olanzapine, 2-methyl-4-(4-methyl-1-piperazinyl)-10H-thieno[2,3-b][1,5]benzodiazepine] |  |  |  |  |  |  |  |  | 66 ± 11% | 47 ± 12% |  |  |  | 2 ± 1% | 98 ± 1% | 59 ± 16% | 56 ± 6% | 53 ± 14% | % Avoidance Responses ± SEM (first component dose 1.0 in combination with Xanomeline dose 10): 9 ± 6% |

Now from value to compound, other results behind:

| % Response Failures ± SEM [3] | % Response Failures ± SEM [4] | % Response Failures ± SEM (given alone, dose 0.1) | % Response Failures ± SEM (given alone, dose 0.3) | % Response Failures ± SEM (given alone, dose 10) | % Response Failures ± SEM (given alone, dose 1) | SMILES | % Avoidance Responses ± SEM [1] | % Avoidance Responses ± SEM [2] | % Avoidance Responses ± SEM [3] | % Avoidance Responses ± SEM [4] | % Avoidance Responses ± SEM [5] | % Avoidance Responses ± SEM (given alone, dose 0.1) | % Avoidance Responses ± SEM (given alone, dose 0.3) | % Avoidance Responses ± SEM (given alone, dose 10) | % Avoidance Responses ± SEM (given alone, dose 1) | % Avoidance Responses ± SEM (given alone, dose 3) | % Avoidance Responses ± SEM [12] | % Avoidance Responses ± SEM [13] | other results |
| --- | --- | --- | --- | --- | --- | --- | --- | --- | --- | --- | --- | --- | --- | --- | --- | --- | --- | --- | --- |
| 1 ± 0% | 8 ± 6% | 2 ± 1% | 25 ± 12% |  |  | O=C(CCCN1CCC(O)(c2ccc(Cl)cc2)CC1)c1ccc(F)cc1 [Haloperidol] | 70 ± 12% | 45 ± 13% | 57 ± 6% | 27 ± 8% | 98.0 ± 1.0% | 59.0 ± 13.0% | 10.0 ± 2.0% |  |  |  |  |  | % Response Failures ± SEM [1]: 5 ± 3%; % Response Failures ± SEM [2]: 14 ± 11%; % Response Failures ± SEM (given alone, dose 0.03 (dose unit not given), measure of motor impairment): 1 ± 0% |
| 1 ± 0% | 3 ± 2% | 0 ± 0% | 2 ± 1% |  | 28 ± 9% | OCCN1CCN(CCCN2c3ccccc3Sc3ccc(C(F)(F)F)cc32)CC1 [Fluphenazine] |  |  | 77 ± 12% | 52 ± 12% |  | 100 ± 0% | 67 ± 9% |  | 33 ± 6% |  | 66 ± 11% | 33 ± 16% | % Response Failures ± SEM [12]: 0 ± 0%; % Response Failures ± SEM [13]: 6 ± 6% |
